Measurements published in patent publication US20200216906A1, “METHODS AND COMPOSITIONS RELATING TO THE DIAGNOSIS AND TREATMENT OF CANCER” (PRESIDENT AND FELLOWS OF HARVARD COLLEGE, priority 2015, published 2020).
Structures can show the parent of a compound that is named as a salt. Where two headings read alike, the source gives them in different places.

Assays:
[1] = system: pancreatic cancer cell lines; assay: Kinetic cell growth assay, panel of pancreatic cancer cell lines; type: cell-based, human; conditions: for IC50: PDAC cell lines
How it was run: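 Pancreatic cancer cells seeded at 2-4×10^3 (low) or 15-20×10^3 (high density) per well; compounds added at several doses 24 h after plating. Confluence imaged live (Incucyte) hourly for 48-144 h or until DMSO controls reached 100% confluence.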

[2] = system: H2052 mesothelioma cells (LATS2 deletion); assay: Cell growth of H2052 mesothelioma cells; type: cell-based
[3] = system: Panc02.13 cells expressing YAPS6A; assay: Gemcitabine and dFdU efflux by LC-MS/MS, Panc02.13 YAPS6A vs GFP; type: in vitro ADME, human; conditions: less efflux in YAPS6A (Hippo-OFF), p<0.05
Text: It was considered whether the Hippo pathway might affect the efflux of gemcitabine and/or its metabolites. To assess directly gemcitabine efflux in conditioned media of pancreatic cancer cells both radiolabeled gemcitabine and LC-MS/MS-based methods were used. Panc02.13 cells grown in highly crowded conditions (Hippo-ON) pumped out 2-3-fold more radiolabeled gemcitabine (counts per μg protein) compared with cells grown in less crowded conditions (Hippo-OFF) (FIG. 22A). Another pathway of inactivation and export is the enzymatic conversion of gemcitabine to a uracil derivative (2′,2′-difluorodeoxyuridine, dFdU) by deamination catalyzed by cytidine deaminase (CDA)(Veltkamp et al., 2008). The efflux of gemcitabine and its deaminated metabolite, dFdU was measured by LC-MS/MS (24) in Panc02.13 cells expressing YAPS6A or vector control after gemcitabine treatment (FIG. 22B).

Miapaca2-GFP xenografts = assay: Mouse xenograft, Miapaca2-GFP; type: in vivo; conditions: i.p., alternate days for two weeks
Protocol: (§1) To assess the gemcitabine response to Hippo pathway inactivation in tumors a mouse xenograft model of pancreatic carcinoma cells and patient-derived xenograft (PDX) models from a variety of solid tumors including human cancers from non-small cell lung, esophagus, breast, mesothelium, ovary, colon, head and neck, sarcoma, and cholangiocarcinoma were used (FIG. 30). In mouse xenograft studies, two human pancreatic cancer cell lines (Miapac2 and Panc02.13) expressing GFP or YAPS6A were injected into athymic mice. Both parental or GFP expressing cells grew rapidly, producing palpable tumors in 5-10 days. When the tumors were ˜200 mm^3 (as measured using a caliper), mice were randomized into treatment and control groups. The […] received i.p. saline injections on alternate days for two weeks, and the latter received gemcitabine (20 mg/kg in Miapaca2-YAPS6A and 50 mg/Kg in Panc02.13-YAPS6A cohorts).
(§2) Tumorigenicity in Nude Mice. All in vivo experiments were performed using 6-week-old to 8-week-old athymic nude mice. Mice were maintained in laminar flow rooms with constant temperature and humidity. Miapaca2 or Panc02.13 cells were inoculated subcutaneously (s.c.) into each flank of the mice. […] Tumor volumes (V) were calculated using the formula: V=AB2/2 (A, axial diameter; B, rotational diameter). […]

[4] = system: Miapaca2-YAPS6A xenografts; assay: Mouse xenograft, Miapaca2-YAPS6A; type: in vivo
Protocol: as §1
Tumorigenicity in Nude Mice. All in vivo experiments were performed using 6-week-old to 8-week-old athymic nude mice. Mice were maintained in laminar flow rooms with constant temperature and humidity. Miapaca2 or Panc02.13 cells were inoculated subcutaneously (s.c.) into each flank of the mice. Cells (2×10^6 in suspension) were injected on day 0, and tumor growth was followed every 2 to 3 days by tumor diameter measurements using vernier calipers. Tumor volumes (V) were calculated using the formula: V=AB2/2 (A, axial diameter; B, rotational diameter). When the outgrowths were • 200 mm^3, mice were divided at random into two groups (control and treated, n=3-8). The treated group received gemcitabine injection or saline control on alternate days (MWF) for 2 weeks.
Intra-tumor gemcitabine measurements.

[5] = system: Panc02.13-parental xenografts; assay: Mouse xenograft, Panc02.13-parental; type: in vivo; conditions: alternate days for two weeks
Protocol: as §1, §2

[6] = cited from earlier work

Compound `Nc1ccn([C@@H]2O[C@H](CO)[C@@H](O)C2(F)F)c(=O)n1` [Gemcitabine, Gemcitabine hydrochloride] has an IC50 ([1]; Homo sapiens, Pancreatic cancer cell, dense culture, read-out: IC50, resistant in dense culture) greater than 1000 nM, an IC50 ([1]; Homo sapiens, Pancreatic cancer cell, sparse culture, read-out: IC50, sensitive in sparse culture) of less than 100 nM and an EC50 ([1]; Homo sapiens, Pancreatic cancer cell, low crowding conditions (10-25% confluence), all cell lines tested, read-out: EC50 on cell growth) of less than 200 nM. The “Dependence of cellular response on cell crowding” value ([1]; seven PDAC cell lines, threshold >100 fold difference in EC50) was “dependent on cell crowding”, the “Density dependence of efficacy” value ([1]; seven pancreatic cancer cell lines, sparse and dense conditions) was “density-dependent” and the “Sensitivity of mesothelioma cells harboring LATS2 deletion” value [2] was “sensitive”. For the same compound, the “Gemcitabine effluxed, YAPS6A vs GFP expressing cells” value [3] was 10 fold, the Growth of xenografts (Miapaca2-GFP xenografts) was “no affect” and the Growth of xenografts ([4]; 20 mg/kg, alternate days for two weeks) was “significantly slowed”. The “Induction in apoptosis vs parental controls” value ([4]; cleaved caspase 7 and phosphor-H2aX) was greater than 2 fold, the Growth of xenografts [5] was “no affect” and the “Patients without objective response to treatment” value ([6]; patients treated with gemcitabine) was greater than 75%. For the same compound, the Median overall survival ([6]; standard-of-care therapy, pancreatic cancer) was “six”.
